According to patent US20040219103A1, “Methods useful for the diagnosis, imaging and treatment of tumors” (priority 2003, published 2004):

Tests used:
JJ5 breast cancer cells [1] = assay: Cytotoxicity (colony-forming) assay against JJ5 breast cancer cells; type: cell-based, human; conditions: 14 days
Protocol: The number of cells seeded was varied from 3×10^4 to 3×10^6 cells to obtain approximately 400 viable colonies/dish taking into account the plating efficiency and the expected level of cytotoxicity. Control dishes contained JJ5 breast cancer cells which were incubated with normal saline. Growth medium was added and the cells were cultured at 37° C./5% CO^2 for 14 days. The growth medium was removed and the colonies were stained with methylene blue (1% in a 1:1 mixture of ethanol and water) then washed twice. The number of colonies per dish was counted using a manual colony counter (Manostat Corp). The plating efficiency was calculated by dividing the number of colonies observed by the number of cells seeded in each dish.

[2] = test system: JJ5 Breast Cancer cells (EGFR); assay: Binding of EGF-^111In-labeled transferrin compound to breast cancer cells (radioligand binding, kinetics, retention); set-up: species or system human
Protocol: For the normal breast cell line HBL-100, 8000 EGFR/cell has been reported. The expression of EGFR in breast cancer cell lines has a reported range of 800 EGFR/cell for MCF-7 cells to 10^6 EGFR/cell for MDA-MB-468 cells. […] Utilizing the Auger electron emitter ^111In was used in the initial experiments to illustrate the utility of the invention using EGF-^111In-labeled transferrin compounds. The EGF-^111In-labeled transferrin (0.25-80 ng) was incubated with 1.5×10^6 cells/dish JJ5 Breast Cancer (prepared from BCBM JJ5) cells in 1 mL of 0.1% human serum albumin in 35 mm multiwell culture dishes at 37° C. for 30 minutes. The cells were transferred to a centrifuge tube and centrifuged. The cell pellet was separated from the supernatant and counted in a g-scintillation counter to determine bound (B) and free (F) radioactivity. Non-specific binding was determined by conducting the assay in 100 nM hEGF. […] Internalized fraction was measured by determining the proportion of radioactivity which could not be displaced from the cell surface by 100 nM hEGF. Cell-associated binding (surface-binding and intracellular accumulation) was expressed as a percentage of medium radioactivity bound per mg of cell study protein.

JJ5 breast cancer cells [3] = assay: Growth inhibition assay against JJ5 breast cancer cells; type: cell-based, human; conditions: 4 days culture
Protocol: Growth medium was added and the cells were cultured at 37° C./5% CO^2 for 4 days. The cells were then recovered by trypsinization and counted in a hemocytometer. Control dishes contained cells cultured in growth medium containing ^111In-DTPA or growth medium alone.

Row | Molecule | reduction in cell survival for JJ5 cells (JJ5 breast cancer cells [1]; 8 pCi/cell) | internalization by cancer cells (in words) ([2]; JJ5 cells) | number of binding sites ([2]; JJ5 cells) | binding by the breast cancer cells (kinetics, in words) ([2]; JJ5 cells, 37° C.) | time retained by the breast cancer cells ([2]; JJ5 cells, 37° C.) | affinity constant for binding to JJ5 cells ([2]; JJ5 cells, 37° C., 30 minutes) | ^111In radioactivity lost from the cells in vitro ([2]; over a 24 hour period at 37° C.) | growth inhibition of the JJ5 cells compared to the medium control (JJ5 breast cancer cells [3]; 3.4 pCi/cell) | cell killing (JJ5 breast cancer cells [1]; <6 pCi/cell) | growth inhibition of the JJ5 cells compared to the medium control (JJ5 breast cancer cells [3]; 3.5 pCi/cell)
1 | EGF-^111In-labeled transferrin compound: human EGF linked via PEG3400-biotin or peptide linker-biotin to streptavidin-transferrin, transferrin labeled with ^111In | 99% | rapidly internalized | 2.7×10^6 | rapidly bound | at least 24 hours | 8e+08 L/mol | < 8% | 83% |  | 
2 | [In+3].[O-]c1cccc2cccnc12.[O-]c1cccc2cccnc12.[O-]c1cccc2cccnc12 [^111In-oxine, reference compound] |  |  |  |  |  |  |  |  | greater than 99% | 91%
